{"source": "patent US6447988B2", "about": "“In vitro assay method for the study of brain aging” (The Regents of the University of California, priority 1997, dated 2002)", "key": {"[1]": {"tested_on": "hippocampal slices", "settings": "cited from earlier work"}, "[2]": {"tested_on": "hippocampal slices", "assay": "Western blot analyses of cultured hippocampal slices exposed to ZPAD", "assay_type": "cell-based, Sprague-Dawley rats", "settings": "for replication of ZPAD-induced alterations by more selective inhibitors of cathepsin L: cultured brain slices", "experimental": "(§1) Hippocampal slices were prepared from 10-13 day-old Sprague-Dawley rats and maintained in culture using the method of Stoppini et al. (1991, supra). Briefly, the hippocampi were dissected in ice-cold artificial cerebrospinal fluid (124 mM NaCl, 10 mM glucose, 3 mM KCl, 1.25 mM KH2PO4, 4 mM MgSO4, 2 mM CaCl2, 26 mM NaHCO3, 2 mM ascorbate, 0.1 mM ascorbate, pH=7.3), and 400 μm thick slices were produced on a McIlwain tissue chopper. One ml of culture media (50% Basal Medium Eagle, 25% Earle's Balance Salt Solution, 25% horse serum), supplemented with 136 mM NaCl, 2 mM CaCl2, 2.5 mM MgSO4, 5 mM NaHCO3 3 mM glutamine, 40 mM glucose, 0.5 mM ascorbic acid, 20 mM HEPES (pH=7.3), 1 mg/L insulin, 5 U/ml penicillin and 5 mg/L streptomycin, was added to each well of a six well culture plate, and inserts containing a polystyrene membrane (pore size: […]) were placed in each well to support the hippocampal sections. Slices were incubated in a humidified, 37° C. atmosphere containing 5% CO2 and maintained in culture for at least nine days before experiments were initiated. Media was replenished on the first day after explantation, and every 2-3 days during the initial culture period. A subset of the hippocampal slices in the six-well culture dishes was exposed to media (as described above, with heat-treated horse serum) containing 30-50 μM ZPAD (BACHEM Bioscience, Inc., Torrance, Calif.). Tissue was harvested after three to six days of continuous ZPAD exposure."}, "[3]": {"tested_on": "hippocampal slices", "assay": "Electron microscopy of cultured hippocampal slices treated with ZPAD", "assay_type": "cell-based, Sprague-Dawley rats", "experimental": "as §1\nFurthermore, lysosomes in CA1 and CA3 pyramidal cells were not restricted to the soma but instead were located throughout dendritic processes. Clusters of lysosomes were commonly found within bulging segments of proximal dendrites that were notable for an absence of nicrotubules and neurofilaments. […] These appendages are similar in form and content to structures previously referred to as “meganeurites.” While pyknotic nuclei were sometimes encountered, most of the cells in slices exposed to ZPAD for six days appeared relatively normal. […]"}, "[4]": {"tested_on": "cathepsin D mRNA", "assay": "In situ hybridization for cathepsin D mRNA in cultured hippocampal slices", "assay_type": "cell-based, Sprague-Dawley rats", "settings": "four days of exposure to 45 μM ZPAD", "experimental": "as §1, with “Tissue was harvested after three to six days of continuous ZPAD exposure.” left out"}, "[5]": {"settings": "chloroquine treatment of long-term hippocampal slices"}, "[6]": {"settings": "45 μM ZPAD for six days, electron microscope"}}}
{"molecule": "CCN(CC)CCCC(C)Nc1ccnc2cc(Cl)ccc12", "note": "(centres unmarked) [chloroquine]", "values": [{"measurement": "carboxy-terminal fragments of the amyloid precursor protein (APP)", "setting": "[1]; [5]", "value": "appearance"}, {"measurement": "synaptophysin", "setting": "[1]; [5]", "value": "loss"}]}
{"molecule": "CC(C)C[C@H](NC(=O)[C@@H](NC(=O)N[C@@H](Cc1ccccc1)C(=O)O)[C@@H]1CCN=C(N)N1)C(=O)N[C@H](C=O)Cc1ccccc1", "note": "[chymostatin]", "values": [{"measurement": "replication of ZPAD-induced alterations by more selective inhibitors of cathepsin L", "setting": "[2]", "value": "replicated several of the ZPAD-induced alterations"}]}
{"molecule": "C=C(C)[C@H]1CN[C@H](C(=O)O)[C@H]1CC(=O)O", "note": "[kainic acid]", "values": [{"measurement": "rate of build-up of β-amyloid-containing fragments and loss of synaptophysin", "setting": "[1]; pre-treatment with kainic acid before chloroquine", "value": "more rapid"}]}
{"molecule": "N-CBZ-L-phenylalanyl-L-alanine-diazomethylketone [ZPAD]", "values": [{"measurement": "meganeurite formation on CA1 neurons", "setting": "[3]; [6]", "value": "a small percentage of CA1 neurons"}, {"measurement": "number of lysosomes in the perikarya of neurons and glia", "setting": "[3]; [6]", "value": "dramatic increase"}, {"measurement": "meganeurite-containing CA1 pyramidal cells after washout", "setting": "[3]; ZPAD for six days, then seven additional days in culture without ZPAD", "value": "more commonly found"}, {"measurement": "levels of 25-30 kDa fragments of amyloid precursor protein", "setting": "[2]; 45 μM ZPAD for six days, Western blot", "value": "increased levels"}, {"measurement": "levels of active cathepsin D protein in lysosomal and non-lysosomal (cytosolic) compartments", "setting": "[2]; Western blots of subcellular fractions of ZPAD-exposed slices", "value": "markedly elevated levels"}, {"measurement": "increase in the protein level of cathepsin D", "setting": "[2]; slices exposed to 30-50 μM ZPAD for three to six days, Western blot, p<0.001, n=8", "value": 3, "unit": "fold"}, {"measurement": "degradation of cytoskeletal proteins", "setting": "[2]; slices exposed to 30-50 μM ZPAD for three to six days, Western blot, tubulin, spectrin, microtubule-associated protein-2, tau", "value": "proteolytic degradation of four cytoskeletal proteins"}, {"measurement": "increase in the level of cathepsin D mRNA, CA3 neurons", "setting": "[4]; CA3 neurons", "value": 56, "unit": "%"}, {"measurement": "increase in the level of cathepsin D mRNA, glial cells of subfield CA1 stratum radiatum", "setting": "[4]; p<0.01", "value": 71, "unit": "%"}]}
{"molecule": "N-CBZ-L-phenylalanyl-L-phenylalanine-diazomethylketone", "values": [{"measurement": "replication of ZPAD-induced alterations by more selective inhibitors of cathepsin L", "setting": "[2]", "value": "replicated several of the ZPAD-induced alterations"}]}
